Test results from ChEMBL document CHEMBL1909046, “DrugMatrix in vitro pharmacology data”.

How the values were obtained:
[1] = target: Cytochrome P450 2C19 (Homo sapiens, UniProt P33261); conditions: bti-tn-5b1-4; note: in other assays of this panel Not Active means under 50% inhibition at 10 µM
[2] = target: C-C chemokine receptor type 5 (Homo sapiens, UniProt P51681); type: cell membranes, HEK293, Membrane; conditions: hek293; note: in other assays of this panel Not Active means under 50% inhibition at 10 µM
[3] = target: T1, C-C chemokine receptor type 4 (Homo sapiens, UniProt P51679); type: cell membranes, Membrane; conditions: chem-1; note: in other assays of this panel Not Active means under 50% inhibition at 10 µM
T1 sequence (P51679 whole entry): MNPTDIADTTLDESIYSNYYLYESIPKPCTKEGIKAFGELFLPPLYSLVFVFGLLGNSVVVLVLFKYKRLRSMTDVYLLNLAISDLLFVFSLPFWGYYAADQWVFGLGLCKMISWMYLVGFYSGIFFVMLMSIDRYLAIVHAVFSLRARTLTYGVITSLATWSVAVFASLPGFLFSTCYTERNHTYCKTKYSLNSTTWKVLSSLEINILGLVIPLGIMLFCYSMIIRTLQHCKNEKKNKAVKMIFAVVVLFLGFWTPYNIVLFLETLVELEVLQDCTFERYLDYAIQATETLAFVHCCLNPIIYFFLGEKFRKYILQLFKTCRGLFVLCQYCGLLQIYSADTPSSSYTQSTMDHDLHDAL

[4] = target: T2, Adenosine receptor A1 (Homo sapiens, UniProt P30542); type: cell membranes, Membrane; conditions: cho;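 note: radioligand binding assay at the adenosine A1 receptor, with DPCPX serving as the labelled ligand; in other assays of this panel Not Active means under 50% inhibition at 10 µM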
T2 sequence (P30542 whole entry): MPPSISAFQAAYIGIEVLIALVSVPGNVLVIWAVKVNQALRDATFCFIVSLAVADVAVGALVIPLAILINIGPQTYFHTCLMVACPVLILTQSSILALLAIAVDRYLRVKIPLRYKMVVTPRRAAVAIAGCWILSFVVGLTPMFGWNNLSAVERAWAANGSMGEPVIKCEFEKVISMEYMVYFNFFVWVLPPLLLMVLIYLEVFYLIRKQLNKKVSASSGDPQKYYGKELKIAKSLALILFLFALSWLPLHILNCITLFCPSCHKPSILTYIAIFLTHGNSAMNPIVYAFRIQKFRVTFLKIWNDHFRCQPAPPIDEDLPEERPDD

[5] = DRUGMATRIX: Phosphodiesterase PDE3 enzyme inhibition (substrate: [3H]cAMP + cAMP); type: tissue-based, Homo sapiens; conditions: platelet; Not Active = under 50% inhibition at 10 µM
[6] = target: T3, Glucocorticoid receptor (Homo sapiens, UniProt P04150); conditions: hela s3; note: in other assays of this panel Not Active means under 50% inhibition at 10 µM
T3 sequence (P04150 whole entry): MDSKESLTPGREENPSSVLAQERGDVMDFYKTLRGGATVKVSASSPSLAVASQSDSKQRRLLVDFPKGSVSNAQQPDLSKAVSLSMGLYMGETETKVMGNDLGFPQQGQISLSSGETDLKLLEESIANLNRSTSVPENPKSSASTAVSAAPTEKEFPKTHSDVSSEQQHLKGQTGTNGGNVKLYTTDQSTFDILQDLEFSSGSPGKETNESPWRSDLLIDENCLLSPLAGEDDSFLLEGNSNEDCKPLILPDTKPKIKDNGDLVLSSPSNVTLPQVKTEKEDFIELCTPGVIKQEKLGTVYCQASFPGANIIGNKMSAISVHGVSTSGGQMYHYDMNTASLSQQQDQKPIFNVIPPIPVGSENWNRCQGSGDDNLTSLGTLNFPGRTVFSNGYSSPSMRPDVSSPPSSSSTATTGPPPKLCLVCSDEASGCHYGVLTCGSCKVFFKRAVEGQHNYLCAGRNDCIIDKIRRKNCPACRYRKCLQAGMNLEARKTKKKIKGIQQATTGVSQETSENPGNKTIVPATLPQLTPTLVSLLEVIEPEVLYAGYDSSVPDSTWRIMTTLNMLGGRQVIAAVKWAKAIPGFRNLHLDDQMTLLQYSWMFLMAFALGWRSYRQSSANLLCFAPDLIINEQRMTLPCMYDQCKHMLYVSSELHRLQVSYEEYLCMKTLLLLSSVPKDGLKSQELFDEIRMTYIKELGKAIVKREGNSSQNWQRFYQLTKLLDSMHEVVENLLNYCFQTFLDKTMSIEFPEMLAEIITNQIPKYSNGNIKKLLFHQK

[7] = DRUGMATRIX: Glutamate, NMDA, Phencyclidine radioligand binding (ligand: [3H] TCP); type: cell membranes, Rattus norvegicus, Wistar, Cerebral cortex, Membrane; conditions: Not Active = under 50% inhibition at 10 µM
[8] = target: T4, Leukotriene C4 synthase (Cavia porcellus, UniProt A6XA80); type: tissue-based, Lung
T4 sequence (A6XA80 whole entry): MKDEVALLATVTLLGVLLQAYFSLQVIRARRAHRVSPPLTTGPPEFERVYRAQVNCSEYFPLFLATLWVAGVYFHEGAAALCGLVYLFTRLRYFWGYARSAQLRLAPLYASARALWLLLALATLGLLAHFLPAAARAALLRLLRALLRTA

[9] = target: T5, Neutrophil elastase (Homo sapiens, UniProt P08246); type: tissue-based
T5 sequence (P08246 whole entry): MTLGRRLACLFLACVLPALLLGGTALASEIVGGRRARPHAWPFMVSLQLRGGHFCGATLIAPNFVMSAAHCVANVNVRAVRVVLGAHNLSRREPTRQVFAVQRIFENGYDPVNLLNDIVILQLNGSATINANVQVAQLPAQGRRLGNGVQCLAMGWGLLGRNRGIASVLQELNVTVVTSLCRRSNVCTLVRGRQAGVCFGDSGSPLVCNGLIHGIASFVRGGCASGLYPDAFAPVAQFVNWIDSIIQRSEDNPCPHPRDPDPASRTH

[10] = DRUGMATRIX: Phorbol Ester radioligand binding (ligand: [3H] PDBu); type: cell membranes, Mus musculus, ICR, Brain, Membrane; conditions: Not Active = under 50% inhibition at 10 µM
[11] = target: Prostaglandin G/H synthase 1 (Homo sapiens, UniProt P23219); test: biochemical; type: tissue-based, Platelet; conditions: platelet
[12] = target: 5-hydroxytryptamine receptor 4 (Cavia porcellus, UniProt O70528); type: cell membranes, Dunkin-Hartley, Striatum, Membrane; note: in other assays of this panel Not Active means under 50% inhibition at 10 µM
Sequence of 5-hydroxytryptamine receptor 4 (O70528 whole entry): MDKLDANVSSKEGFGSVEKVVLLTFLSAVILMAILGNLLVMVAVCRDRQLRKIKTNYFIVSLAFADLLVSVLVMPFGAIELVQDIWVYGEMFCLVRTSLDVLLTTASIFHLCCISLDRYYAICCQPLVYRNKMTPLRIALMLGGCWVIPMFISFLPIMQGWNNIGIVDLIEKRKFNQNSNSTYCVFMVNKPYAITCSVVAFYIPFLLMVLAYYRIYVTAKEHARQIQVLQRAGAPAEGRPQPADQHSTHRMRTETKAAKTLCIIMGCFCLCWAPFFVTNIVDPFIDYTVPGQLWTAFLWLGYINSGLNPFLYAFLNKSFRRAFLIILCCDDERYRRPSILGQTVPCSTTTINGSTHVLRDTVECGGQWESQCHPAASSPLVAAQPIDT

Sequence of Prostaglandin G/H synthase 1 (P23219 whole entry): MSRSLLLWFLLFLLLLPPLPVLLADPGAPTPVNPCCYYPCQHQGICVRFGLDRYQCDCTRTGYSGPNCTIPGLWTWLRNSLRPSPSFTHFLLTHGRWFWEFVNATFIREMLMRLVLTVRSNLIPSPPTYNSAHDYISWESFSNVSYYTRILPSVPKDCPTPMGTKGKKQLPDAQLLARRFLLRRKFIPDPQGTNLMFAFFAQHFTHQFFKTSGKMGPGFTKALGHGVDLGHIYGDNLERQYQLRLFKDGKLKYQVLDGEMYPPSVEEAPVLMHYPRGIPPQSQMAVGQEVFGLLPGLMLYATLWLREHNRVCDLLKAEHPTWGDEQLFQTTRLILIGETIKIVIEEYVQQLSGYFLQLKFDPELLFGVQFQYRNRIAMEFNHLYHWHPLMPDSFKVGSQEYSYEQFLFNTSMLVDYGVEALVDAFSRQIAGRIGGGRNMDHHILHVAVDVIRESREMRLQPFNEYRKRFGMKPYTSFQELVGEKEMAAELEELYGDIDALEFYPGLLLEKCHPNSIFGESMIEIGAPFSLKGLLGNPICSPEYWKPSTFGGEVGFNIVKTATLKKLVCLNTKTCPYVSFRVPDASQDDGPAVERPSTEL
Sequence of Cytochrome P450 2C19 (P33261 whole entry): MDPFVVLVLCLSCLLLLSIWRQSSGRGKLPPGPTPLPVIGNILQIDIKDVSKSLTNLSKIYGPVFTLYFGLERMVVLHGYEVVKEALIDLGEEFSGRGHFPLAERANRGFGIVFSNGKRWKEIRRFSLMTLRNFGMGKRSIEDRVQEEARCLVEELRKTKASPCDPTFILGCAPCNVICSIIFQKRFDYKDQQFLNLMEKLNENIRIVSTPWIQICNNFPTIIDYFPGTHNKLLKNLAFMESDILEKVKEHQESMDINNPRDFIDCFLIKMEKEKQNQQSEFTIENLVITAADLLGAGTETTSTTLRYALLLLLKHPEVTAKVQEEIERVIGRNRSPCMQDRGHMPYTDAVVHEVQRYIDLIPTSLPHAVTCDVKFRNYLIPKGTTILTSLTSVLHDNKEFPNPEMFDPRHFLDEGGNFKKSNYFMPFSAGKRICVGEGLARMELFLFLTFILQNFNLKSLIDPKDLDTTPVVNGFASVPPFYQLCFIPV
Sequence of C-C chemokine receptor type 5 (P51681 whole entry): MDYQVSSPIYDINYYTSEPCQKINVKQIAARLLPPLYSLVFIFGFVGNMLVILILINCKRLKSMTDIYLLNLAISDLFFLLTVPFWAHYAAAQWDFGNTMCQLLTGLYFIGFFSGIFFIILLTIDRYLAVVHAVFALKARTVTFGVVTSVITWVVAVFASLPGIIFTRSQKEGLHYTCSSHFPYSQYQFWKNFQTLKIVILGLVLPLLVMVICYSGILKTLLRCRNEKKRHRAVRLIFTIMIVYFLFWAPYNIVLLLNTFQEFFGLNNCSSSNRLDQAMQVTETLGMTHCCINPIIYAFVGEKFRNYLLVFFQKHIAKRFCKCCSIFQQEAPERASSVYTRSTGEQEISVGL

CC1=C(CC(=O)O)c2cc(F)ccc2/C1=C\c1ccc([S+](C)[O-])cc1 (stereo not given)
Not Active: IC50 [1] | Ki [1] | IC50 [2] | IC50 [3] | IC50 [4] | IC50 [5] | Ki [5] | IC50 [6] | IC50 [7] | Ki [7] | IC50 [8] | IC50 [9] | IC50 [10] | Ki [10] | IC50 [11] | IC50 [12]

N[C@H](CSC(=S)NCc1ccccc1)C(=O)O
Not Active: IC50 [1] | Ki [1] | IC50 [2] | IC50 [3] | IC50 [4] | IC50 [5] | Ki [5] | IC50 [6] | IC50 [7] | Ki [7] | IC50 [8] | IC50 [9] | IC50 [10] | Ki [10] | IC50 [11] | IC50 [12]

Clc1ccc2c(c1)C(N1CCNCC1)=Nc1ccccc1O2 [AMOXAPINE]
Not Active: IC50 [1] | Ki [1] | IC50 [2] | IC50 [3] | IC50 [4] | IC50 [6] | IC50 [8] | IC50 [9] | IC50 [11] | IC50 [12]

COc1cc2c(c(OC)c1OC)-c1ccc(OC)c(=O)cc1[C@@H](NC(C)=O)CC2 [COLCHICINE]
Not Active: IC50 [1] | Ki [1] | IC50 [2] | IC50 [3] | IC50 [4] | IC50 [6] | IC50 [8] | IC50 [9] | IC50 [11] | IC50 [12]

CN1CCC(=C2c3ccccc3C=Cc3ccccc32)CC1 [CYPROHEPTADINE]
Not Active: IC50 [1] | Ki [1] | IC50 [2] | IC50 [3] | IC50 [4] | IC50 [6] | IC50 [8] | IC50 [9] | IC50 [11] | IC50 [12]

CC/C(=C(/CC)c1ccc(O)cc1)c1ccc(O)cc1 [DIETHYLSTILBESTROL]
Not Active: IC50 [1] | Ki [1] | IC50 [2] | IC50 [3] | IC50 [8] | IC50 [9] | IC50 [12]

C=CCN1CC[C@]23c4c5ccc(O)c4O[C@H]2C(=O)CC[C@@]3(O)[C@H]1C5 [NALOXONE]
Not Active: IC50 [2] | IC50 [3] | IC50 [4] | IC50 [8] | IC50 [9] | IC50 [11] | IC50 [12]

COCCOC(=O)C1=C(C)NC(C)=C(C(=O)OC(C)C)C1c1cccc([N+](=O)[O-])c1 (stereo not given) [NIMODIPINE]
Not Active: IC50 [2] | IC50 [3] | IC50 [4] | IC50 [5] | Ki [5] | IC50 [6] | IC50 [7] | Ki [7] | IC50 [8] | IC50 [9] | IC50 [10] | Ki [10] | IC50 [11] | IC50 [12]

CC(C)NCC(O)COc1cccc2ccccc12 (stereo not given) [PROPRANOLOL]
Not Active: IC50 [1] | Ki [1] | IC50 [2] | IC50 [3] | IC50 [4] | IC50 [8] | IC50 [9] | IC50 [11] | IC50 [12]

O=C(c1ccc(OCCN2CCCCC2)cc1)c1c(-c2ccc(O)cc2)sc2cc(O)ccc12 [RALOXIFENE]
Not Active: IC50 [2] | IC50 [3] | IC50 [4] | IC50 [5] | Ki [5] | IC50 [6] | IC50 [7] | Ki [7] | IC50 [8] | IC50 [9] | IC50 [10] | Ki [10] | IC50 [11] | IC50 [12]

CC(C)c1nc(CN(C)C(=O)N[C@H](C(=O)N[C@@H](Cc2ccccc2)C[C@H](O)[C@H](Cc2ccccc2)NC(=O)OCc2cncs2)C(C)C)cs1 [RITONAVIR]
Not Active: IC50 [2] | IC50 [3] | IC50 [4] | IC50 [5] | Ki [5] | IC50 [6] | IC50 [7] | Ki [7] | IC50 [8] | IC50 [9] | IC50 [10] | Ki [10] | IC50 [11] | IC50 [12]

CC[C@]1(O)C[C@@H]2CN(CCc3c([nH]c4ccccc34)[C@@](C(=O)OC)(c3cc4c(cc3OC)N(C)[C@H]3[C@@](O)(C(=O)OC)[C@H](OC(C)=O)[C@]5(CC)C=CCN6CC[C@]43[C@@H]65)C2)C1 [VINBLASTINE]
Not Active: IC50 [2] | IC50 [3] | IC50 [4] | IC50 [5] | Ki [5] | IC50 [6] | IC50 [7] | Ki [7] | IC50 [8] | IC50 [9] | IC50 [10] | Ki [10] | IC50 [11] | IC50 [12]

CC(=O)CC(c1ccccc1)c1c(O)c2ccccc2oc1=O (stereo not given) [WARFARIN]
Not Active: IC50 [1] | Ki [1] | IC50 [2] | IC50 [3] | IC50 [4] | IC50 [5] | Ki [5] | IC50 [7] | Ki [7] | IC50 [8] | IC50 [9] | IC50 [10] | Ki [10] | IC50 [11] | IC50 [12]

C[C@@H](N)[C@H]1CC[C@H](C(=O)Nc2ccncc2)CC1 [Y-27632]
Not Active: IC50 [2] | IC50 [3] | IC50 [4] | IC50 [5] | Ki [5] | IC50 [6] | IC50 [7] | Ki [7] | IC50 [8] | IC50 [9] | IC50 [10] | Ki [10] | IC50 [11] | IC50 [12]
